# Laboratory results published in publication PMC5329164 (Cancer Science, 2017).
# Legend:
# UM‐UC‐14 [FGFR3_S249C] = assay: In vitro cell growth assay; type: cell-based; settings: Homo sapiens, UMUC14, 120 h, read-out: IC50, anti-proliferative effect
# [1] = system: adriamycin‐resistant UM‐UC‐14 cell line; assay: In vitro cell growth assay, adriamycin-resistant UM-UC-14
# [2] = system: urothelial cancer harboring FGFR3 gene alternation; settings: 25 evaluable urothelial cancer patients with FGFR3 gene alternation; cited from earlier work
# [3] = cited from earlier work; for T 1/2: clinical information; for hyperphosphatemia: clinical
# RT‐112 [FGFR3‐TACC3] = assay: In vitro cell growth assay; type: cell-based; settings: Homo sapiens, RT-112, 120 h, read-out: IC50, proliferation
# [4] = system: tumors harboring FGFR3‐TACC3 fusion genes; settings: patients with tumors harboring FGFR3-TACC3 fusion genes; cited from earlier work
# [5] = system: c‐MYC expression in lung cancer cell lines harboring FGFR1 overexpression; settings: cited from earlier work
structure (smiles),measurement,setting,value
COc1cccc2c1C(=O)c1c(O)c3c(c(O)c1C2=O)C[C@@](O)(C(=O)CO)C[C@@H]3O[C@H]1C[C@H](N)[C@H](O)[C@H](C)O1 [Adriamycin],IC50,UM‐UC‐14 [FGFR3_S249C],6.7 ng/mL
same,IC50,"[1]; Homo sapiens, UMUC14, 120 h, read-out: IC50, anti-proliferative effect",0.058 µg/mL
same,fold weaker anti-proliferative effect in resistant vs parental cell line,[1]; adriamycin-resistant UM-UC-14 vs parental UM-UC-14,8.7 folds
"CCN1CCN(c2ccc(Nc3cc(N(C)C(=O)Nc4c(Cl)c(OC)cc(OC)c4Cl)ncn3)cc2)CC1 [BGJ398, 3‐(2,6‐dichloro‐3,5‐dimethoxy‐phenyl)‐1‐{6‐[4‐(4‐ethyl‐piperazin‐1‐yl)‐phenylamino]‐pyrimidin‐4‐yl}‐1‐methyl‐urea]",overall response rate,[2],36%
same,T 1/2,[3],quite large
same,hyperphosphatemia,[3],commonly observed
Nc1ccn([C@@H]2O[C@H](CO)[C@@H](O)C2(F)F)c(=O)n1 [Gemcitabine],IC50,RT‐112 [FGFR3‐TACC3],0.95 ng/mL
COc1cc(OC)cc(N(CCNC(C)C)c2ccc3ncc(-c4cnn(C)c4)nc3c2)c1 [JNJ‐42756493],partial responses,[4],three out of four partial responses
same,T 1/2,[3],quite large
same,hyperphosphatemia,[3],commonly observed
"CCN(CC)CCCCNc1ncc2cc(-c3cc(OC)cc(OC)c3)c(NC(=O)NC(C)(C)C)nc2n1 [PD173074, 1‐tert‐butyl‐3‐[6‐(3,5‐dimethoxy‐phenyl)‐2‐(4‐diethylamino‐butylamino)‐pyrido[2,3‐d]pyrimidin‐7‐yl]‐urea]",c-MYC expression,[5],decreased
